# Measurements from US8431567B2 (Abbott GmbH & Co. KG, priority 2006, dated 2013).
# Target: T1, human vasopressin V1b receptor (Homo sapiens, UniProt P47901)
# T1 construct: expressed in transfected cells; host or cells: CHO-K1 (cell line hV1b_3H2_CHO), membrane preparation
# T1 sequence (P47901 1-424): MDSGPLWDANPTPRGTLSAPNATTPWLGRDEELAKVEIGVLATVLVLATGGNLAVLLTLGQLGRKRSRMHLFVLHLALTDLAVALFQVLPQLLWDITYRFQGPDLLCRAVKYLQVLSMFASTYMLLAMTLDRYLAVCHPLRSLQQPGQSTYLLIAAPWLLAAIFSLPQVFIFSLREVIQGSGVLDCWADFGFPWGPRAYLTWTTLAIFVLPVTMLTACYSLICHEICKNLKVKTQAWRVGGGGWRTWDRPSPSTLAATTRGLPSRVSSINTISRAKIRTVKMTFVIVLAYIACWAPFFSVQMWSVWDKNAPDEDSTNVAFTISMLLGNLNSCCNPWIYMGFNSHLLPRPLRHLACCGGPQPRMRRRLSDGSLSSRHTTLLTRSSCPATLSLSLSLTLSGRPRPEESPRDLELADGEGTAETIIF
# Experiment: Vasopressin V1b receptor binding test
# Details: membranes of CHO-K1 cells, displacement of 1.5 nM 3H-AVP
# Procedure: • Vasopressin V1b Receptor Binding Test: • Substances:
# The test substances were dissolved at a concentration of 10^−2 M in DMSO and diluted further in DMSO to 5×10^−4 M to 5×10^−9 M. These DMSO solutions were diluted 1:10 with test buffer. The concentration of substance was again diluted 1:5 in the test preparation.
# The membrane pellet was homogenized and centrifuged again as described, and then taken up in 50 mM Tris-HCl, pH 7.4, homogenized and, frozen in aliquots, stored at −190° C. in liquid nitrogen.
# The incubation buffer was: 50 mM Tris, 10 mM MgCl2, 0.1% BSA, pH 7.4. […] The nonspecific binding was determined with 1 μM AVP (Bachem #H1780). All determinations were performed in triplicate. After incubation (60 minutes at room temperature), the free radioligand was filtered off by vacuum filtration (Skatron cell harvester 7000) on Whatman GF/B glass-fibre filter mats and the filters were transferred to scintillation vessels. Liquid scintillation measurement was performed in a Tricarb instrument, Model 2000 or 2200CA (Packard). Conversion of the measured cpm to dpm was performed with the aid of a standard quench series.
# The binding parameters were calculated by nonlinear regression in SAS.
# For the compounds according to the invention, the affinities for the human vasopressin receptor V1b were measured according to the above test and the affinity constant (Ki) was determined.
row,Ki [µM],Structure (SMILES)
1,< 0.05,"CCOc1ccc(C)cc1C1(N2CCN(c3ccncc3)CC2)C(=O)N(S(=O)(=O)c2ccc(OC)cc2OC)c2ccc(C#N)cc21 (racemic) [Example 101, (±)-5-Cyano-1-(2,4-dimethoxy-benzenesulphonyl)-3-(2-ethoxy-5-methylphenyl)-3-(4-pyridin-4-yl-piperazin-1-yl)-2,3-dihydro-1H-indol-2-one]"
2,< 0.05,"CCOc1ccc(OC)cc1C1(N2CCN(C3CCN(C)CC3)CC2)C(=O)N(S(=O)(=O)c2ccc(OC)cc2OC)c2ccc(C#N)cc21 (racemic) [Example 102, (±)-5-Cyano-1-(2,4-dimethoxy-benzenesulphonyl)-3-(2-ethoxy-5-methoxyphenyl)-3-[4-(1-methyl-piperidin-4-yl)-piperazin-1-yl]-2,3-dihydro-1H-indol-2-one]"
3,< 0.05,"CCOc1ccc(CC)cc1C1(N2CCN(c3ccnc(C(C)C)c3)CC2)C(=O)N(S(=O)(=O)c2ccc(OC)cc2OC)c2ccc(C#N)cc21 (racemic) [Example 105, (±)-5-Cyano-1-(2,4-dimethoxy-benzenesulphonyl)-3-(2-ethoxy-5-ethyl-phenyl)-3-[4-(2-isopropyl-pyridin-4-yl)-piperazin-1-yl]-2,3-dihydro-1H-indol-2-one]"
4,< 0.05,"CCOc1ccc(CC)cc1C1(N2CCN(c3ccnc(C)c3)CC2)C(=O)N(S(=O)(=O)c2ccc(OC)cc2OC)c2ccc(C#N)cc21 (racemic) [Example 107, (±)-5-Cyano-1-(2,4-dimethoxy-benzenesulphonyl)-3-(2-ethoxy-5-ethyl-phenyl)-3-[4-(2-methyl-pyridin-4-yl)-piperazin-1-yl]-2,3-dihydro-1H-indol-2-one]"
5,< 0.05,"CCOc1ccc(OC)cc1C1(N2CCN(c3ccncc3)CC2)C(=O)N(S(=O)(=O)c2ccc(OC)cc2OC)c2ccc(C#N)cc21 (single isomer, unassigned; (+)) [Example 96, (+)-5-Cyano-1-(2,4-dimethoxy-benzenesulphonyl)-3-(2-ethoxy-5-methoxyphenyl)-3-(4-pyridin-4-yl-piperazin-1-yl)-2,3-dihydro-1H-indol-2-one]"
6,< 0.05,"CCOc1ccc(OC)cc1C1(N2CCN(c3ccnc(C)c3)CC2)C(=O)N(S(=O)(=O)c2ccc(OC)cc2OC)c2ccc(C#N)cc21 (single isomer, unassigned; (+)) [Example 106, (+)-5-Cyano-1-(2,4-dimethoxy-benzenesulphonyl)-3-(2-ethoxy-5-methoxyphenyl)-3-[4-(2-methyl-pyridin-4-yl)-piperazin-1-yl]-2,3-dihydro-1H-indol-2-one]"
7,0.05 to 0.5,"CCOc1ccccc1C1(N2CCN(c3cccnc3)CC2)C(=O)N(S(=O)(=O)c2ccc(OC)cc2OC)c2ccc(C#N)cc21 (centres unmarked) [Example 2, 5-Cyano-1-(2,4-dimethoxy-benzenesulphonyl)-3-(2-ethoxyphenyl)-3-(4-pyridin-3-yl-piperazin-1-yl)-2,3-dihydro-1H-indol-2-one]"
8,< 0.05,"COc1ccc(S(=O)(=O)N2C(=O)C(c3ccccc3OC)(N3CCN(c4ccncc4)CC3)c3cc(Cl)ccc32)c(OC)c1 (centres unmarked) [Example 3, 5-Chloro-1-(2,4-dimethoxy-benzenesulphonyl)-3-(2-methoxyphenyl)-3-(4-pyridin-4-yl-piperazin-1-yl)-1,3-dihydro-indol-2-one]"
9,0.05 to 0.5,"COc1ccccc1C1(N2CCN(c3ccncc3)CC2)C(=O)N(S(=O)(=O)c2ccc(C#N)cc2)c2ccc(Cl)cc21 (centres unmarked) [Example 4, 4-[5-Chloro-3-(2-methoxyphenyl)-2-oxo-3-(4-pyridin-4-yl-piperazin-1-yl)-2,3-dihydro-indole-1-sulphonyl]-benzonitrile]"
10,< 0.05,"COc1ccccc1C1(N2CCN(c3ccncc3)CC2)C(=O)N(S(=O)(=O)c2ccccc2OC)c2ccc(Cl)cc21 (centres unmarked) [Example 5, 5-Chloro-1-(2-methoxy-benzenesulphonyl)-3-(2-methoxyphenyl)-3-(4-pyridin-4-yl-piperazin-1-yl)-1,3-dihydro-indol-2-one]"
11,< 0.05,"COc1ccccc1C1(N2CCN(c3ccncc3)CC2)C(=O)N(S(=O)(=O)c2ccc(C)cc2OC)c2ccc(Cl)cc21 (centres unmarked) [Example 6, 5-Chloro-1-(2-methoxy-4-methyl-benzenesulphonyl)-3-(2-methoxyphenyl)-3-(4-pyridin-4-yl-piperazin-1-yl)-1,3-dihydro-indol-2-one]"
12,0.05 to 0.5,"CCOc1ccccc1C1(N2CCN(c3ccncc3)CC2)C(=O)N(S(=O)(=O)c2ccc(C#N)cc2)c2ccc(C#N)cc21 (centres unmarked) [Example 7, 5-Cyano-1-(4-cyano-benzenesulphonyl)-3-(2-ethoxyphenyl)-3-(4-pyridin-4-yl-piperazin-1-yl)-2,3-dihydro-1H-indol-2-one]"
13,0.05 to 0.5,"CCOc1ccccc1C1(N2CCN(c3ccncc3)CC2)C(=O)N(S(=O)(=O)c2ccccc2OC)c2ccc(C#N)cc21 (centres unmarked) [Example 8, 5-Cyano-3-(2-ethoxyphenyl)-1-(2-methoxy-benzenesulphonyl)-3-(4-pyridin-4-yl-piperazin-1-yl)-2,3-dihydro-1H-indol-2-one]"
14,0.05 to 0.5,"CCOc1ccccc1C1(N2CCN(c3ccncc3)CC2)C(=O)N(S(=O)(=O)c2ccc(C)cc2OC)c2ccc(C#N)cc21 (centres unmarked) [Example 9, 5-Cyano-3-(2-ethoxyphenyl)-1-(2-methoxy-4-methyl-benzenesulphonyl)-3-(4-pyridin-4-yl-piperazin-1-yl)-2,3-dihydro-1 H-indol-2-one]"
15,< 0.05,"CCOc1ccccc1C1(N2CCN(c3ccncc3)CC2)C(=O)N(S(=O)(=O)c2ccc(OC)cc2OC)c2ccc(C#N)cc21 (centres unmarked) [Example 10, 5-Cyano-1-(2,4-dimethoxy-benzenesulphonyl)-3-(2-ethoxyphenyl)-3-(4-pyridin-4-yl-piperazin-1-yl)-2,3-dihydro-1H-indol-2-one]"
16,0.05 to 0.5,"COc1ccc(S(=O)(=O)N2C(=O)C(c3ccccc3OC)(N3CCN(c4ccncc4)CC3)c3cc(Cl)ccc32)cc1OC (centres unmarked) [Example 12, 5-Chloro-1-(3,4-dimethoxy-benzenesulphonyl)-3-(2-methoxyphenyl)-3-(4-pyridin-4-yl-piperazin-1-yl)-1,3-dihydro-indol-2-one]"
17,0.05 to 0.5,"CCOc1ccccc1C1(N2CCN(c3ccncc3)CC2)C(=O)N(S(=O)(=O)c2ccccc2)c2ccc(C#N)cc21 (centres unmarked) [Example 14, 5-Cyano-1-benzenesulphonyl-3-(2-ethoxyphenyl)-3-(4-pyridin-4-yl-piperazin-1-yl)-2,3-dihydro-1H-indol-2-one]"
18,0.05 to 0.5,"CCOc1ccccc1C1(N2CCN(c3ccncc3)CC2)C(=O)N(S(=O)(=O)c2ccc(F)cc2)c2ccc(C#N)cc21 (centres unmarked) [Example 15, 5-Cyano-3-(2-ethoxyphenyl)-1-(4-fluoro-benzenesulphonyl)-3-(4-pyridin-4-yl-piperazin-1-yl)-2,3-dihydro-1H-indol-2-one]"
19,0.05 to 0.5,"COc1ccccc1C1(N2CCN(c3ccncc3)CC2)C(=O)N(S(=O)(=O)c2ccccc2)c2ccc(Cl)cc21 (centres unmarked) [Example 16, 1-Benzenesulphonyl-5-chloro-3-(2-methoxyphenyl)-3-(4-pyridin-4-yl-piperazin-1-yl)-1,3-dihydro-indol-2-one]"
20,0.05 to 0.5,"COc1ccccc1C1(N2CCN(c3ccncc3)CC2)C(=O)N(S(=O)(=O)c2ccc(Cl)cc2)c2ccc(Cl)cc21 (centres unmarked) [Example 18, 5-Chloro-1-(4-chloro-benzenesulphonyl)-3-(2-methoxyphenyl)-3-(4-pyridin-4-yl-piperazin-1-yl)-1,3-dihydro-indol-2-one]"
21,< 0.05,"COc1ccc(S(=O)(=O)N2C(=O)C(c3ccccc3OC)(N3CC4CN(c5ccncc5)CC4C3)c3cc(Cl)ccc32)c(OC)c1 (centres unmarked) [Example 19, 5-Chloro-1-(2,4-dimethoxy-benzenesulphonyl)-3-(2-methoxyphenyl)-3-(5-pyridin-4-yl-hexahydro-pyrrolo[3,4-c]pyrrol-2-yl)-1,3-dihydro-indol-2-one]"
22,0.05 to 0.5,"COc1ccc(S(=O)(=O)N2C(=O)C(c3ccccc3OC)(N3CCN(c4ccncc4)CC3)c3cc(Cl)ccc32)cc1 (centres unmarked) [Example 20, 5-Chloro-1-(4-methoxy-benzenesulphonyl)-3-(2-methoxyphenyl)-3-(4-pyridin-4-yl-piperazin-1-yl)-1,3-dihydro-indol-2-one]"
23,< 0.05,"COc1ccc(S(=O)(=O)N2C(=O)C(c3ccccc3OC)(N3C[C@H]4CN(c5ccncc5)C[C@H]43)c3cc(Cl)ccc32)c(OC)c1 (stereo partly drawn) [Example 21, 5-Chloro-1-(2,4-dimethoxy-benzenesulphonyl)-3-(2-methoxyphenyl)-3-((1R,5S)-3-pyridin-4-yl-3,6-diaza-bicyclo[3.2.0]hept-6-yl)-1,3-dihydro-indol-2-one]"
